Results on 13 compounds are retold here after BindingDB's records for patent US12227501 (Bayer Aktiengesellschaft, 2025).

Each structure is given as a SMILES string.

In test [1] the target is T1, Casein kinase I isoform alpha (Homo sapiens, UniProt P48729). Nature of the test: CSNK1A1 Assay 1. The method, then:
Inhibitory activity of compounds of the present invention in presence of 1 μM adenosine-tri-phosphate (ATP) was quantified employing the CSNK1A1 assay as described in the following paragraphs. In essence, the enzyme activity is measured by quantification of the adenosine-di-phosphate (ADP), which is generated as a co-product of the enzyme reaction, via the “ADP-Glo™ Kinase Assay” kit from the company Promega. This detection system works as follows: In a first step the ATP not consumed in the kinase reaction is quantitatively converted to cAMP employing an adenylate cyclase (“ADP-Glo-reagent”), then the adenylate cyclase is stopped and the ADP generated in the kinase reaction converted to ATP which generates in a luciferase-based reaction a glow-luminescence signal (“Kinase Detection Reagent”). Recombinant fusion protein of N-terminal Glutathion-S-Transferase (GST) and full-length human CSNK1A1, expressed by baculovirus infected insect cells and purified via Glutathion affinity chromatography, was purchased from Life Technologies (product no. PV4174) and used as enzyme. As substrate for the kinase reaction the biotinylated peptide Btn-Ahx-[…] (C-terminus in amide form) was used which can be purchased e.g. from the company Biosyntan (Berlin-Buch, Germany).

In test [2] the target is T2, Epidermal growth factor receptor [669-1210] (UniProt P00533).
T2 construct: 669-1210
T2 sequence (P00533 669-1210): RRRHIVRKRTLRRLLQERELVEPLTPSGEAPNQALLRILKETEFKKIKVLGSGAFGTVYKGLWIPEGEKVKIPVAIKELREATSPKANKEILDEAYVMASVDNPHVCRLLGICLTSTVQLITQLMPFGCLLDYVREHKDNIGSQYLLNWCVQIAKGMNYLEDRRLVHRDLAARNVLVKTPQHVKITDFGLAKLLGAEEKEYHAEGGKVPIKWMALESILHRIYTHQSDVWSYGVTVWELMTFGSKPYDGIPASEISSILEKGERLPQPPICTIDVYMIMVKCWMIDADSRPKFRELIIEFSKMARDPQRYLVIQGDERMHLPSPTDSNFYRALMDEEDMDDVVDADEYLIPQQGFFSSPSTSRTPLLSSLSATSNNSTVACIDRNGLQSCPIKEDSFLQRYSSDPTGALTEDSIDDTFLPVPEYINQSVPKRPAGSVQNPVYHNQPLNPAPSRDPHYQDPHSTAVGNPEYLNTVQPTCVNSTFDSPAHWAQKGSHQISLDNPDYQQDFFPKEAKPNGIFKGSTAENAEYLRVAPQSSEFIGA
Briefly: WT-EGFR Kinase Assay. The method, then:
For the assay 50 nl of a 100 fold concentrated solution of the test compound in DMSO was pipetted into either a black low volume 384 well microtiter plate or a black 1536 well microtiter plate (both Greiner Bio-One, Frickenhausen, Germany), 2 μL of a solution of EGFR in aqueous assay buffer [50 mM Hepes pH 7.0, 10 mM MgCl2, 1 mM dithiothreitol, 0.5 mM EGTA, 0.3 mM activated sodium ortho-vanadate, 0.005% (w/v) bovine serum albumin, 0.005% (v/v) Tween-20] were added and the mixture was incubated for 15 min at 22° C. to allow pre-binding of the test compounds to the enzyme before the start of the kinase reaction. […] The concentration of EGFR was adjusted depending of the activity of the enzyme lot and was chosen appropriate to have the assay in the linear range, typical concentration was 7.6 pg/μL. […] Subsequently the amount of phosphorylated substrate was evaluated by measurement of the resonance energy transfer from the PT66-Tb-Cryptate to the streptavidine-XL665.

The target of test [3] is T1, Casein kinase I isoform alpha. Briefly: CSNK1A1 High ATP Assay. The procedure:
For the assay 50 nl of a 100 fold concentrated solution of the test compound in DMSO was pipetted into a white low volume 384-well microtiter plate (Greiner Bio-One, Frickenhausen, Germany), 2 μL of a solution of CSNK1A1 in aqueous assay buffer [50 mM HEPES pH 7.5, 10% (v/v) glycerol, 10 mM MgCl2, 50 mM NaCl, 1 mM dithiothreitol, 0.01% (w/v) bovine serum albumin, 0.01% (v/v) Triton X-100] were added and the mixture was incubated for 15 min at 22° C. to allow pre-binding of the test compounds to the enzyme before the start of the kinase reaction. […] The concentration of CSNK1A1 was adjusted depending of the activity of the enzyme lot and was chosen appropriate to have the assay in the linear range, a typical concentration is about 0.4 ng/μL. The reaction was stopped by the addition of 2.5 μL of “ADP-Glo-reagent” (1:1.5 fold diluted with water) and the resulting mixture was incubated at 22° C. for 1 h to convert the ATP not consumed in the kinase reaction completely […]. Subsequently 2.5 μL of the “kinase detection reagent” (1.2 fold more concentrated than recommended by the producer) were added, the resulting mixture was incubated at 22° C. for 1 h and then the luminescence measured with a suitable measurement instrument (e.g. Viewlux™ from Perkin-Elmer). The amount of emitted light was taken as a measure for the amount of ADP generated and thereby for the activity of the CSNK1A1.

Test [4] has as its target Casein kinase I isoform delta (Homo sapiens, UniProt P48730). Nature of the test: CSNK1D Assay. The method, then:
For the assay 50 nl of a 100 fold concentrated solution of the test compound in DMSO was pipetted into a white 1536-well microtiter plate (Greiner Bio-One, Frickenhausen, Germany), 2 μL of a solution of CSNK1D in aqueous assay buffer [50 mM HEPES pH 7.5, 10% (v/v) glycerol, 10 mM MgCl2, 50 mM NaCl, 1 mM dithiothreitol, 0.01% (w/v) bovine serum albumin, 0.01% (v/v) Triton X-100] were added and the mixture was incubated for 15 min at 22° C. to allow pre-binding of the test compounds to the enzyme before the start of the kinase reaction. […] The concentration of CSNK1 D was adjusted depending of the activity of the enzyme lot and was chosen appropriate to have the assay in the linear range, a typical concentration is about 0.5 ng/μL. The reaction was stopped by the addition of 2.5 μL of “ADP-Glo-reagent” (1:1.5 fold diluted with water) and the resulting mixture was incubated at 22° C. for 1 h to convert the ATP not consumed in the kinase reaction completely […]. Subsequently 2.5 μL of the “kinase detection reagent” (1.2 fold more concentrated than recommended by the producer) were added, the resulting mixture was incubated at 22° C. for 1 h and then the luminescence measured with a suitable measurement instrument (e.g. Viewlux™ from Perkin-Elmer). The amount of emitted light was taken as a measure for the amount of ADP generated and thereby for the activity of the CSNK1D.

Test [5] has as its target T1, Casein kinase I isoform alpha. Nature of the test: CSNK1A1 Assay 2. The procedure: For the assay 50 nl of a 100 fold concentrated solution of the test compound in DMSO was pipetted into a white 1536-well microtiter plate (Greiner Bio-One, Frickenhausen, Germany), 2 μL of a solution of CSNK1A1 in aqueous assay buffer [50 mM HEPES pH 7.5, 10% (v/v) glycerol, 10 mM MgCl2, 50 mM NaCl, 1 mM dithiothreitol, 0.01% (w/v) bovine serum albumin, 0.01% (v/v) Triton X-100] were added and the mixture was incubated for 15 min at 22° C. to allow pre-binding of the test compounds to the enzyme before the start of the kinase reaction. […] The concentration of CSNK1A1 was adjusted depending of the activity of the enzyme lot and was chosen appropriate to have the assay in the linear range, a typical concentrations are about 0.0375 ng/μL. The reaction was stopped by the addition of 2.5 μL of “ADP-Glo-reagent” (1:1.5 fold diluted with water) and the resulting mixture was incubated at 22° C. for 1 h to convert the ATP not consumed in the kinase reaction completely […]. Subsequently 2.5 μL of the “kinase detection reagent” (1.2 fold more concentrated than recommended by the producer) were added, the resulting mixture was incubated at 22° C. for 1 h and then the luminescence measured with a suitable measurement instrument (e.g. Viewlux™ from Perkin-Elmer).

T1 sequence (P48729 whole entry, canonical isoform): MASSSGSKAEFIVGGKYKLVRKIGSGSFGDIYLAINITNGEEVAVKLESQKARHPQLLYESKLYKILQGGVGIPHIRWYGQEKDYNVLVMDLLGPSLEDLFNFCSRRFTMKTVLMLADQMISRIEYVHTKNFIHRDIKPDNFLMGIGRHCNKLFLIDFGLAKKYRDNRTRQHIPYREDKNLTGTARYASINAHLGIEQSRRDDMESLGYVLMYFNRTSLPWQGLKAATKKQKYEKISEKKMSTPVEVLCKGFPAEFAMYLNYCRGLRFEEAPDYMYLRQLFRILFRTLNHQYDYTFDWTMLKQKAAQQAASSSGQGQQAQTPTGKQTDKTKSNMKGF
Casein kinase I isoform delta, sequence (P48730 whole entry, canonical isoform): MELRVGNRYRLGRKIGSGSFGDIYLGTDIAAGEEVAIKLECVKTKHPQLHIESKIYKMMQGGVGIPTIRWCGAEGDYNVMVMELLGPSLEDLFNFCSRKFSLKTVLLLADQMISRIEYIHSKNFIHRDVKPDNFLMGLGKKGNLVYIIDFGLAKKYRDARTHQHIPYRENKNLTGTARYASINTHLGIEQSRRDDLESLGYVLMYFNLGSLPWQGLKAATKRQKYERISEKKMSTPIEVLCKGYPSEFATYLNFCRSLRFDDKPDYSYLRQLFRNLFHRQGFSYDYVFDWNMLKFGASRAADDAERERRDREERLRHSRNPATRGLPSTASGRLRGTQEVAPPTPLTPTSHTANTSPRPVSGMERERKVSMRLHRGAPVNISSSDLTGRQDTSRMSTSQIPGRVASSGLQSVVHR

As for `CN1CCc2[nH]c(-c3ccnc(NC(=O)[C@@H]4C[C@@H]4F)c3)c(Nc3ccccc3)c2C1=O` [US10428063, Example 40], the values for the IC50 in test [1] and in test [2] were 24.1 nM and 85.5 nM, respectively.
`CC1(C)Cc2[nH]c(-c3ccnc(NC(=O)Cc4ccc(F)cc4)c3)c(Nc3ccccc3)c2C(=O)N1` [US12227501, Example 22]: the IC50 in test [3] is 54.7 nM; in test [4], 11.9 nM; in test [5], 4.23 nM; in test [2] it was 815 nM.
Take `CC(C(=O)Nc1cc(-c2[nH]c3c(c2Nc2ccccc2F)C(=O)N(C)CC3)ccn1)c1ccc(F)cc1` (stereo not drawn) [US12227501, Example 29]: the half-maximal inhibitory concentration (IC50) in test [3] was 138 nM; in test [5], 3.19 nM.
For the compound `O=C(Cc1ccc(F)cc1)Nc1cc(-c2[nH]c3c(c2Nc2ccccc2)C(=O)N(CC(F)(F)F)CC3)ccn1` [US12227501, Example 36], the IC50 is 1080 nM in test [3], 11.3 nM in test [5] and more than 20000 nM in test [2].
Taken in the same sequence, the figures for `CC(C(=O)Nc1cc(-c2[nH]c3c(c2Nc2ccccc2)C(=O)N(CC(F)(F)F)CC3)ccn1)c1ccc(F)cc1` (stereo not drawn) [US12227501, Example 37] were more than 1630 nM, 22.6 nM and more than 20000 nM.
Take `Cc1cccc(CC(=O)Nc2cc(-c3[nH]c4c(c3Nc3ccccc3)C(=O)N(C)CC4)ccn2)c1` [US12227501, Example 70]: the IC50 was 140 nM in test [3], 3.66 nM in test [4], 3.2 nM in test [5] and 2040 nM in test [2].
Taken in the same sequence, the figures for `Cc1ccccc1CC(=O)Nc1cc(-c2[nH]c3c(c2Nc2ccccc2)C(=O)N(C)CC3)ccn1` [US12227501, Example 71] were 241 nM, 6.47 nM, 4.79 nM and 7430 nM.
As for `Cc1ccccc1Nc1c(-c2ccnc(NC(=O)Cc3ccc(F)cc3)c2)[nH]c2c1C(=O)NC(C)(C)C2` [US12227501, Example 113], the IC50 in test [3] is 166 nM; in test [4], 16.1 nM; in test [5], 13.7 nM.
For `CC1(C)Cc2[nH]c(-c3ccnc(NC(=O)Cc4ccc(F)cc4)c3)c(Nc3cccc(F)n3)c2C(=O)N1` [US12227501, Example 126] the same measures were 47.8 nM, 14.4 nM and 4.44 nM.
Regarding `CC1(C)Cc2[nH]c(-c3ccnc(NC(=O)Cc4ccc(F)cc4)c3)c(Nc3cccc(F)n3)c2C(=O)N1` [US12227501, Example 127], the results for the IC50 in test [3], in test [5] and in test [2] were 23.1 nM, 4.74 nM and more than 20000 nM, respectively.
With `Cc1c(F)cccc1Nc1c(-c2ccnc(NC(=O)Cc3ccc(F)cc3)c2)[nH]c2c1C(=O)NC(C)(C)C2` [US12227501, Example 131], the IC50 in test [3] was 464 nM; in test [4] it was 11.6 nM; in test [5] it was 9.38 nM; in test [2] it was 1090 nM.
For `Cc1ccccc1Nc1c(-c2ccnc(NC(=O)Cc3ccc(F)cc3)c2)[nH]c2c1C(=O)NC1(CCC1)C2` [US12227501, Example 142] the same measures were 12.3 nM, 9.35 nM, 5.1 nM and more than 20000 nM.
For `CN1C(=O)c2c([nH]c(-c3ccnc(NC(=O)Cc4ccc(F)cc4)c3)c2Nc2ccccc2)CC12CCC2` [US12227501, Example 156] the same measures were 29.7 nM, 9.38 nM, 6.09 nM and 6660 nM.
